# Molecular target: His-tagged CRBN-DDB1 complex (Homo sapiens (Human), UniProt Q96SW2)
# Test: Time-Resolved Fluorescence Resonance Energy Transfer (TR-FRET) assay
# Assay type: binding
# Conditions: competition with Cy5-labeled thalidomide (8 nM), 1 hour at room temperature; read-out: CRBN HTRF IC50
# Protocol: The mixture were incubated at room temperature for 1 hour. […] Quantitative loss of FRET efficiency as a function of compound concentrations was fitted by a four-parameter Logistic Function using GraphPad Prism 7.0 and the IC50 values were reported for each compound.
# The compound numbers correspond to the compound numbers in Table 1.
# Sequence of His-tagged CRBN-DDB1 complex (Q96SW2 whole entry): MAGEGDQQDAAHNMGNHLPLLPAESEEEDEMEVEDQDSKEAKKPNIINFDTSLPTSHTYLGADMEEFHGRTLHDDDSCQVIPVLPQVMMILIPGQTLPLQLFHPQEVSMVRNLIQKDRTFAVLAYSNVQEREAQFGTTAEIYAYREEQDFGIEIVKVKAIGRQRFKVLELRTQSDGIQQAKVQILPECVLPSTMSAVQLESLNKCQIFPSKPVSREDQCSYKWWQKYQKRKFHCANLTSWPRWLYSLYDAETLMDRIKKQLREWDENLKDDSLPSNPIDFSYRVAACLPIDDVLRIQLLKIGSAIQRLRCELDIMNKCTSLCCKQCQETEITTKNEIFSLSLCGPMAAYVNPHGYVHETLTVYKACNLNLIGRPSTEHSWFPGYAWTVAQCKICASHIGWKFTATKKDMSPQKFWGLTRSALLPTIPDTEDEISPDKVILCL
# Sequence of His-tagged CRBN-DDB1 complex (Q16531 whole entry partner): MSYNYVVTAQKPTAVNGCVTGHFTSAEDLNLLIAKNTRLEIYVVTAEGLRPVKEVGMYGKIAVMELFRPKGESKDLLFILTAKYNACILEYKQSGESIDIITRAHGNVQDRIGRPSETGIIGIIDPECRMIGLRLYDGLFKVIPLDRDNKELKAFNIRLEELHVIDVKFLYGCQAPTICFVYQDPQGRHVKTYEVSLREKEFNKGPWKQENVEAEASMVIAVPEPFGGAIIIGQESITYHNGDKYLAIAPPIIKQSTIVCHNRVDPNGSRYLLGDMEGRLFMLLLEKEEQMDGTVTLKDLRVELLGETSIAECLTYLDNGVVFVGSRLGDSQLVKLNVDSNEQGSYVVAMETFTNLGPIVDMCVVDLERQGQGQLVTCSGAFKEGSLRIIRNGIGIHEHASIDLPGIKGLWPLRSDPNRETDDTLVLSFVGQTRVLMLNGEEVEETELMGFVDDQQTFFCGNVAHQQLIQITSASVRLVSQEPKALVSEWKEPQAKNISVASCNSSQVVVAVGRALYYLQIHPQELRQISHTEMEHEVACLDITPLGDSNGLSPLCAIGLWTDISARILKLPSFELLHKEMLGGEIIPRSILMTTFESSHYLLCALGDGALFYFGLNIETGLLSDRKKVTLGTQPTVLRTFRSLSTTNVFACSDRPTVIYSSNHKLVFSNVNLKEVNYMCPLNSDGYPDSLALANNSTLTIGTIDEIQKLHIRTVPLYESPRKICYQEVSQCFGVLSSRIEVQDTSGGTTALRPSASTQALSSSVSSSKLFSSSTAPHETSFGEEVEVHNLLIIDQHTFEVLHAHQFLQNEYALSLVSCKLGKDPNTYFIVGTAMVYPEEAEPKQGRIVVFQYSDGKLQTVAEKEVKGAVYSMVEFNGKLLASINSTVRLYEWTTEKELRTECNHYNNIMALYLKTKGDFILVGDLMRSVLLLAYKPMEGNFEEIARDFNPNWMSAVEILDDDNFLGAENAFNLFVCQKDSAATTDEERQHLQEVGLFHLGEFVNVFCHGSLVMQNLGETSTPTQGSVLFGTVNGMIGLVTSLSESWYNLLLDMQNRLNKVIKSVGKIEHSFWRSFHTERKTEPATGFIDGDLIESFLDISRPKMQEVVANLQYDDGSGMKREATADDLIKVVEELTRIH
row,IC50,Structure (SMILES)
1,1 to 10 µM,O=C1CCC(Sc2nc3ccc(Cl)cc3[nH]2)C(=O)N1 (stereo not drawn) [Compound I-8]
2,> 100 µM,"O=C1NC(=O)C(N2CCN(c3ccccc3)CC2=O)S1 (stereo not drawn) [Compound I-82, 5-(2-Oxo-4-phenylpiperazin-1-yl)thiazolidine-2,4-dione]"
3,> 100 µM,"O=C1CN(C2SC(=O)NC2=O)CCN1 (stereo not drawn) [Compound I-77, 5-(3-Oxopiperazin-1-yl)thiazolidine-2,4-dione]"

# Same assay, conditions: read-out: CRBN HTRF IC50
row,IC50,Structure (SMILES)
1,10 to 100 µM,"Cn1c(SC2CCC(=O)NC2=O)nc2ccccc21 (stereo not drawn) [Compound I-12, 3-(1-Methyl-1H-benzoimidazol-2-ylsulfanyl)-piperidine-2,6-dione]"
2,1 to 10 µM,O=C1CCC(Sc2ccccc2OC(F)(F)F)C(=O)N1 (stereo not drawn) [Compound I-99]
3,10 to 100 µM,O=C1CCC(Oc2cccc3cccnc23)C(=O)N1 (stereo not drawn) [Compound I-129]
4,1 to 10 µM,"Cc1coc(-c2ccnc(SC3CCC(=O)NC3=O)c2)n1 (stereo not drawn) [Compound I-138, 3-((4-(4-Methyloxazol-2-yl)pyridin-2-yl)thio)piperidine-2,6-dione]"
5,10 to 100 µM,"O=C1CCC(Sc2ccccn2)C(=O)N1 (stereo not drawn) [Compound I-6, 3-(pyridin-2-ylthio)piperidine-2,6-dione]"
6,10 to 100 µM,Nc1cc(C(F)(F)F)ccc1SC1CCC(=O)NC1=O (stereo not drawn) [Compound I-120]
7,10 to 100 µM,"CCc1ccc([S+]([O-])C2CCC(=O)NC2=O)cc1 (stereo not drawn) [Compound I-64, 3-((4-ethylphenyl)sulfinyl)piperidine-2,6-dione]"
8,1 to 10 µM,CN(C)c1ccc(OC2CCC(=O)NC2=O)cc1 (stereo not drawn) [Compound I-125]
9,10 to 100 µM,O=C1CCC(Sc2cccs2)C(=O)N1 (stereo not drawn) [Compound I-72]
10,10 to 100 µM,"O=C1CCC(Sc2cccc(CO)c2)C(=O)N1 (stereo not drawn) [Compound I-127, 3-((3-(Hydroxymethyl)phenyl)thio)piperidine-2,6-dione]"
11,10 to 100 µM,Cc1cccc(SC2CCC(=O)NC2=O)c1 (stereo not drawn) [Compound I-69]
12,10 to 100 µM,"Nc1ccc(SC2CCC(=O)NC2=O)cc1 (stereo not drawn) [Compound I-14, 3-(4-Amino-phenylsulfanyl)-piperidine-2,6-dione]"
13,10 to 100 µM,"COc1ccc(SC2CCC(=O)NC2=O)cc1 (stereo not drawn) [Compound I-9, 3-((4-methoxyphenyl)thio)piperidine-2,6-dione]"
14,1 to 10 µM,"CCc1ccc(OC2CCC(=O)NC2=O)cc1 (stereo not drawn) [Compound I-78, 3-(4-ethylphenoxy)piperidine-2,6-dione]"
15,1 to 10 µM,CCOc1cccc(SC2CCC(=O)NC2=O)c1 (stereo not drawn) [Compound I-86]
16,1 to 10 µM,"CCn1c(SC2CCC(=O)NC2=O)nc2ccccc21 (stereo not drawn) [Compound I-11, 3-((1-ethyl-1H-benzo[d]imidazol-2-yl)thio)piperidine-2,6-dione]"
17,1 to 10 µM,O=C1CCC(Sc2cccc(Cl)c2)C(=O)N1 (stereo not drawn) [Compound I-122]
18,10 to 100 µM,"CNC(=O)c1ccnc(SC2CCC(=O)NC2=O)c1 (stereo not drawn) [Compound I-131, 2-((2,6-Dioxopiperidin-3-yl)thio)-N-methylisonicotinamide]"

# Source: patent publication US11512080B2, “CRBN ligands and uses thereof” (Kymera Therapeutics, Inc., priority 2018, dated 2022)
